Results taken from publication PMC7598997, “Synthesis and evaluation of anticancer activities of 2- or 4-substituted 3-(N-benzyltriazolylmethyl)-13α-oestrone derivatives” (Journal of Enzyme Inhibition and Medicinal Chemistry, 2020).
Like-named read-outs stand apart in the source and are kept apart here.

Experiments:
tubulin = test: cell-free in vitro tubulin polymerisation assay; type: biochemical; details: 10 µM paclitaxel, positive control, vs untreated control
Description: The effect of brominated triazole (12a) on tubulin polymerisation was tested with the HTS-Tubulin Polymerisation Assay Biochem Kit (Bio-Kasztel Ltd., Budapest, Hungary) according to the manufacturer’s recommendations. Briefly, 10 µl of a 0.125 or 0.25 mM solution of the test compound (12a) was placed on a prewarmed (37 °C), UV-transparent microplate. About 10 µl 10 µM paclitaxel and 10 µl General Tubulin Buffer were used as positive and negative control, respectively. 100 µl 3.0 mg/ml tubulin in 80 mM PIPES pH 6.9, 2 mM MgCl2, 0.5 mM EGTA, 1 mM GTP was added to each sample, and the microplate was immediately placed into a prewarmed (37 °C) UV-spectrophotometer (SpectoStarNano, BMG Labtech, Ortenberg, Germany) to start the recording reaction. A 60-min kinetic measurement protocol was applied to determine the absorbance of the reaction solution per minute at 340 nm. For the evaluation of the experimental data, the maximum reaction rate (Vmax: Δabsorbance/min) was calculated. Moving averages of absorbances determined at three consecutive timepoints were calculated and the highest difference between two succeeding moving averages was taken as the Vmax of the tested compound in the tubulin polymerisation reaction. Each sample was prepared in two parallels and the measurements were repeated twice. For statistical evaluation, Vmax data were analysed by the one-way ANOVA test with the Newmann–Keuls post-test by using Prism 4.01 software (GraphPad Software, San Diego, CA).

MCF-7 cells = test: MTT antiproliferative assay, MCF-7; type: cell-based, human; details: for inhibition at 10 µM / inhibition at 30 µM: read-out: Inhibition (%) ± SEM; for IC50: read-out: calculated IC50
Description: (§1) The antiproliferative properties of the newly synthesised triazoles (11a,b–15a,b) were determined on a panel of human adherent cancer cell lines of gynaecological origin. MCF-7 and MDA-MB-231 were isolated from breast cancers differing in biochemical background, while A2780 cells were isolated from ovarian cancer. The cancer selectivity of compound 12a was tested on the non-cancerous mouse embryo fibroblast cell line NIH/3T3. All cell lines were purchased from European Collection of Cell Cultures (ECCAC, Salisbury, UK). Cells were cultivated in minimal essential medium supplemented with 10% foetal bovine serum, 1% non-essential amino acids and an antibiotic–antimycotic mixture. All media and supplements were obtained from Lonza Group Ltd., Basel, Switzerland. Near-confluent cancer cells were seeded onto a 96-well microplate (5000 cells/well) and, after overnight standing, 200 µL new medium, containing the tested compounds at 10 and 30 µM, was added. After incubation for 72 h at 37 °C in humidified air containing 5% CO2, the living cells were assayed by the addition of 20 µL of 5 mg/ml 3-(4,5-dimethylthiazol-2-yl)-2,5-diphenyltetrazolium bromide (MTT) solution. MTT was converted by intact mitochondrial reductase and precipitated as purple crystals during a 4-h contact period. The medium was next removed and the precipitated formazan crystals were dissolved in 100 µL of DMSO during a 60-min period of shaking at 37 ^оC.
(§2) Finally, the reduced MTT was assayed at 545 nm, using a microplate reader utilising wells with untreated cells serving as control. […] All in vitro experiments were carried out on two microplates with at least five parallel wells. Stock solutions of the tested substances (10 mM) were prepared in DMSO. […] Cisplatin (Ebewe Pharma GmbH, Unterach, Austria) was used as positive control.

A2780 cells = test: MTT antiproliferative assay, A2780; type: cell-based, human; details: for inhibition at 10 µM / inhibition at 30 µM: read-out: Inhibition (%) ± SEM; for IC50: read-out: calculated IC50
Description: as §1, §2

MDA-MB-231 cells = test: MTT antiproliferative assay, MDA-MB-231; type: cell-based, human; details: for inhibition at 10 µM / inhibition at 30 µM: read-out: Inhibition (%) ± SEM; for IC50: read-out: calculated IC50
Description: as §1, §2

[1] = Homo sapiens, MCF7, MCF-7, 10 µM, 72 h, MTT
[2] = Homo sapiens, MCF7, MCF-7, 30 µM, 72 h, MTT
[3] = Homo sapiens, A2780, 10 µM, 72 h, MTT
[4] = Homo sapiens, A2780, 30 µM, 72 h, MTT
[5] = Homo sapiens, MDA-MB-231, 10 µM, 72 h, MTT
[6] = Homo sapiens, MDA-MB-231, 30 µM, 72 h, MTT

Row | Structure (SMILES) | inhibition at 10 µM (MCF-7 cells; Homo sapiens, MCF7, 72 h) [%] | inhibition at 30 µM (MCF-7 cells; Homo sapiens, MCF7, 72 h) [%] | inhibition at 10 µM (A2780 cells; Homo sapiens, A2780, 72 h) [%] | inhibition at 30 µM (A2780 cells; Homo sapiens, A2780, 72 h) [%] | IC50 (A2780 cells; Homo sapiens, A2780, 72 h) [µM] | inhibition at 10 µM (MDA-MB-231 cells; Homo sapiens, MDA-MB-231, 72 h) [%] | inhibition at 30 µM (MDA-MB-231 cells; Homo sapiens, MDA-MB-231, 72 h) [%] | melting point [°C] | IC50 (MCF-7 cells; Homo sapiens, MCF7, 72 h) [µM] | IC50 (MDA-MB-231 cells; Homo sapiens, MDA-MB-231, 72 h) [µM] | further results
1 | CC(=O)O[C@H]1C(=O)[C@@]2(C)[C@H]([C@H](OC(=O)c3ccccc3)[C@]3(O)C[C@H](OC(=O)[C@H](O)[C@@H](NC(=O)c4ccccc4)c4ccccc4)C(C)=C1C3(C)C)[C@]1(OC(C)=O)CO[C@@H]1C[C@@H]2O [Paclitaxel, reference compound] |  |  |  |  |  |  |  |  |  |  | increase in Vmax (tubulin): threefold increase in Vmax
2 | CCOP(=O)(OCC)c1c(OCc2cn(Cc3ccc(C(C)(C)C)cc3)nn2)ccc2c1CC[C@@H]1[C@@H]2CC[C@@]2(C)C(=O)CC[C@@H]12 [Compound 15b, (3-[{1–(4-tert-butylbenzyl)-1H-1,2,3-triazol-4-yl}methoxy]-13α-estra-1,3,5(10)-trien-17-on-4-yl)-diethylphosphonate] | 30.1 ± 1.53 | 77.5 ± 1.56 | 46.2 ± 1.27 | 92.05 ± 0.86 | 9.96 | < 20 | 34.8 ± 2.2 | 54 to 59 |  |  | 
3 | C[C@@]12CC[C@@H]3c4cc(Br)c(OCc5cn(Cc6ccccc6)nn5)cc4CC[C@H]3[C@@H]1CCC2=O [Compound 11a, 3-[{1-benzyl-1H-1,2,3-triazol-4-yl}methoxy]-2-bromo-13α-estra-1,3,5(10)-trien-17-one] |  |  |  |  |  |  |  |  |  |  | inhibition at 10 µM (MCF-7 cells; [1]): 29.1 ± 1.42%; inhibition at 30 µM (MCF-7 cells; [2]): 36.5 ± 1.22%; inhibition at 10 µM (A2780 cells; [3]): 44.87 ± 0.09%; inhibition at 30 µM (A2780 cells; [4]): 52 ± 0.8%; IC50 (A2780 cells; Homo sapiens, A2780, 72 h, MTT): 21.5 µM; inhibition at 10 µM (MDA-MB-231 cells; [5]): 47.5 ± 1.21%; inhibition at 30 µM (MDA-MB-231 cells; [6]): 38.2 ± 2.78%
4 | CC(C)(C)c1ccc(Cn2cc(COc3cc4c(cc3Br)[C@H]3CC[C@@]5(C)C(=O)CC[C@H]5[C@@H]3CC4)nn2)cc1 [Compound 11b, 2-bromo-3-[{1–(4-tert-butylbenzyl)-1H-1,2,3-triazol-4-yl}methoxy]-13α-estra-1,3,5(10)-trien-17-one] |  |  |  |  |  |  |  |  |  |  | inhibition at 10 µM (MCF-7 cells; [1]): < 20%; inhibition at 30 µM (MCF-7 cells; [2]): < 20%; inhibition at 10 µM (A2780 cells; [3]): 30.2 ± 2.35%; inhibition at 30 µM (A2780 cells; [4]): 33.9 ± 2.7%; inhibition at 10 µM (MDA-MB-231 cells; [5]): 24.4 ± 2.2%; inhibition at 30 µM (MDA-MB-231 cells; [6]): 23.9 ± 1.07%
5 | CC(C)(C)c1ccc(Cn2cc(COc3ccc4c(c3Br)CC[C@@H]3[C@@H]4CC[C@@]4(C)C(=O)CC[C@@H]34)nn2)cc1 [Compound 12b, 4-bromo-3-[{1–(4-tert-butylbenzyl)-1H-1,2,3-triazol-4-yl}methoxy]-13α-estra-1,3,5(10)-trien-17-one] |  |  |  |  |  |  |  |  |  |  | inhibition at 10 µM (MCF-7 cells; [1]): 23.5 ± 1.03%; inhibition at 30 µM (MCF-7 cells; [2]): 29.2 ± 2.94%; inhibition at 10 µM (A2780 cells; [3]): 46.9 ± 1.75%; inhibition at 30 µM (A2780 cells; [4]): 54.7 ± 0.7%; IC50 (A2780 cells; Homo sapiens, A2780, 72 h, MTT): 18.3 µM; inhibition at 10 µM (MDA-MB-231 cells; [5]): < 20%; inhibition at 30 µM (MDA-MB-231 cells; [6]): < 20%
6 | CCOP(=O)(OCC)c1c(OCc2cn(Cc3ccccc3)nn2)ccc2c1CC[C@@H]1[C@@H]2CC[C@@]2(C)C(=O)CC[C@@H]12 [Compound 15a, (3-[{1-benzyl-1H-1,2,3-triazol-4-yl}methoxy]-13α-estra-1,3,5(10)-trien-17-on-4-yl)-diethylphosphonate] | 42.4 ± 2.94 | 91 ± 1.49 | 79.9 ± 1.08 | 99.5 ± 0.03 | 5.91 | 25.7 ± 1.76 | 96.87 ± 0.28 | 43 to 45 | 11.4 | 13.2 | 
7 | CCOP(=O)(OCC)c1cc2c(cc1OCc1cn(Cc3ccc(C(C)(C)C)cc3)nn1)CC[C@@H]1[C@@H]2CC[C@@]2(C)C(=O)CC[C@@H]12 [Compound 13b, (3-[{1–(4-tert-butylbenzyl)-1H-1,2,3-triazol-4-yl}methoxy]-13α-estra-1,3,5(10)-trien-17-on-2-yl)-diethylphosphonate] | 74 ± 1.88 | 95.52 ± 0.23 | 95.61 ± 0.59 | 99.73 ± 0.21 | 2.95 | 57 ± 2.58 | 98.93 ± 0.2 |  | 6.59 | 9.51 | 
8 | CC(C)(C)c1ccc(Cn2cc(COc3cc4c(cc3P(=O)(c3ccccc3)c3ccccc3)[C@H]3CC[C@@]5(C)C(=O)CC[C@H]5[C@@H]3CC4)nn2)cc1 [Compound 14b, (3-[{1–(4-tert-butylbenzyl)-1H-1,2,3-triazol-4-yl}methoxy]-13α-estra-1,3,5(10)-trien-17-on-2-yl)diphenylphosphine oxide] | 77.87 ± 0.66 | 90.69 ± 0.18 | 85.52 ± 0.64 | 95.82 ± 0.12 | 5.07 | 46.6 ± 1.21 | 71.3 ± 1.23 | 205 to 208 | 7.16 | 13.6 | 
9 | N.N.[Cl][Pt][Cl] [Cisplatin, reference compound] |  |  |  |  |  |  |  |  |  |  | Inhibition (%) ± SEM (MCF-7 cells; MCF-7, 10 µM, 72 h, MTT): 53.03 ± 2.29%; Inhibition (%) ± SEM (MCF-7 cells; MCF-7, 30 µM, 72 h, MTT): 86.90 ± 1.24%; IC50 (MCF-7 cells; MCF-7, 72 h, MTT): 5.78 µM; Inhibition (%) ± SEM (A2780 cells; A2780, 10 µM, 72 h, MTT): 83.57 ± 1.21%; Inhibition (%) ± SEM (A2780 cells; A2780, 30 µM, 72 h, MTT): 95.02 ± 0.28%; IC50 (A2780 cells; A2780, 72 h, MTT): 1.3 µM; Inhibition (%) ± SEM (MDA-MB-231 cells; MDA-MB-231, 10 µM, 72 h, MTT): 67.51 ± 1.01%; Inhibition (%) ± SEM (MDA-MB-231 cells; MDA-MB-231, 30 µM, 72 h, MTT): 87.75 ± 1.10%; IC50 (MDA-MB-231 cells; MDA-MB-231, 72 h, MTT): 3.7 µM
10 | CCOP(=O)(OCC)c1cc2c(cc1OCc1cn(Cc3ccccc3)nn1)CC[C@@H]1[C@@H]2CC[C@@]2(C)C(=O)CC[C@@H]12 [Compound 13a, (3-[{1-benzyl-1H-1,2,3-triazol-4-yl}methoxy]-13α-estra-1,3,5(10)-trien-17-on-2-yl)-diethylphosphonate] | < 20 | 43.5 ± 2.63 | 29.5 ± 1.86 | 90.85 ± 0.4 | 13.5 | < 20 | 36 ± 3.17 | 75 to 80 |  |  | 
11 | C[C@@]12CC[C@@H]3c4cc(P(=O)(c5ccccc5)c5ccccc5)c(OCc5cn(Cc6ccccc6)nn5)cc4CC[C@H]3[C@@H]1CCC2=O [Compound 14a, (3-[{1-benzyl-1H-1,2,3-triazol-4-yl}methoxy]-13α-estra-1,3,5(10)-trien-17-on-2-yl)diphenylphosphine oxide] | 66.9 ± 1.46 | 92.5 ± 1.08 | 96 ± 1.28 | 98.06 ± 0.89 | 4.87 | 82 ± 2.49 | 98.52 ± 0.1 | 117 to 120 | 8.38 | 7.13 | 
